The results in this text go back to BindingDB's records for doi:10.1016/j.bmcl.2004.09.002 (A.V. Bogatsky Physico-Chemical Institute of The National …, 2004).

Molecules are shown by their SMILES. Counter-ions that a name gives are not always drawn.

The assay can be described thus: In vitro inhibition of human platelet aggregation in suspension.

`O=C(O)CC(NC(=O)CCC(=O)Nc1ccc2c(c1)CNC2)c1ccccc1` (configuration not stated) [3-[3-(2,3-Dihydro-1H-isoindol-5-ylcarbamoyl)-propionylamino]-3-phenyl-propionic acid; hydrochloride] returned an IC50 of 270 nM. Then `O=C(O)CCNC(=O)CCC(=O)Nc1ccc2c(c1)CNC2` [3-[3-(2,3-Dihydro-1H-isoindol-5-ylcarbamoyl)-propionylamino]-propionic acid; hydrochloride], with 2090 nM.

In general, IC50 refers to the concentration needed to halve the response being measured. Low values mean higher potency, high ones lower potency.
